Laboratory results: patent US20240043408A1, “CRYSTAL FORM OF FIBROBLAST GROWTH FACTOR RECEPTOR INHIBITOR AND PREPARATION METHOD THEREFOR” (Transthera Sciences (Nanjing), Inc., priority 2020, published 2024)
Where two headings read alike, the source gives them in different places.

Tests used:
[1] = Stability test of amorphous form and crystal form I at 105° C. and 60° C.; assay type: physicochemical
Protocol: The “destructive impurity” described herein refers to an additional peak in a liquid chromatogram of a sample in a stability test compared with the liquid chromatogram of the sample on day 0.
The bottles were let stand at 105° C. (samples were taken on days 3, 5 and 10) and at 60° C. (samples were taken on days 10, 20 and 30). The taken samples were investigated for changes in appearance, related substances and form.
Proper amounts of amorphous form samples of the compound (I) were placed into weighing bottles. The bottles were let stand at 105° C. (samples were taken on days 3, 5 and 10) and at 60° C. (samples were taken on days 10, 20 and 30). The taken samples were investigated for changes in appearance, related substances.

[2] = test system: SNU-16 cells; test: Cell viability assay (Cell titer-Glo, 72 h); assay type: cell-based; conditions: for IC50: SNU-16 gastric cancer cells with FGFR abnormalities, 72 h, Cell titer-Glo, read-out: Inhibitory activity (nM) on SNU-16 cells (IC50)
Protocol: SNU-16 is a gastric cancer cell with FGFR abnormalities.
Instrument: Espire multi-functional microplate reader
SNU-16 cells were seeded in a 96-well plate for adherent culture overnight, and then compounds at different concentrations (12 dose groups, serial 3-fold dilution with DMSO) were added to give final concentrations of 0.17-30000 nM, wherein the final DMSO content was 5%. Negative control wells contained a 5% DMSO medium. The plate was incubated at 37° C., 5% CO2 and 95% humidity for 72 h for later test. 30 μL of Cell titer-Glo reagent was added to each well, and after the plate was incubated at room temperature for 30 min, the final data were read by Espire.

[3] = Stability test of crystal form I under influencing factors (60° C., RH 92.5%, RH 75%, illumination); assay type: physicochemical
Text: Samples were taken on days 0, 4 and 10, and investigated for changes in properties and purity.

[4] = 60° C., Day 10, additional HPLC peaks vs day 0
[5] = Illumination (≥4500±500 Lux), Day 4
[6] = Illumination (≥4500±500 Lux), Day 10

## C=CC(=O)N1C[C@@H](Nc2ncc3cc(-c4c(Cl)c(OC)cc(OC)c4Cl)ccc3n2)C[C@H]1CO [Amorphous form, 1-((2S,4S)-4-((6-(2,6-dichloro-3,5-dimethoxyphenyl)quinazolin-2-yl)amino)-2-(hydroxymethyl)pyrrolidin-1-yl)prop-2-en-1-one]
[1]; 60° C., Day 10
  Appearance: Pale yellow powder
  Related substances (%): 0.73%
[1]; [4]
  Destructive impurity (%): 0.06%
[1]; 60° C., Day 20
  Appearance: Pale yellow powder
  Related substances (%): 0.72%
[1]; 60° C., Day 30
  Appearance: Pale yellow powder
  Related substances (%): 0.75%
[1]; 105° C., Day 3
  Appearance: Pale yellow powder
  Related substances (%): 1.3%
[1]; 105° C., Day 5
  Appearance: Pale yellow powder
  Related substances (%): 1.6%
[1]; 105° C., Day 10
  Appearance: Pale yellow powder
  Related substances (%): 2.5%
[1]; Day 0
  Appearance: Pale yellow powder
  Destructive impurity (%): None
  Related substances (%): 0.62%
[1]; stored at 60° C. for 30 days
  Number of destructive impurities detected (HPLC): 2
[1]; stored at 105° C. for 10 days
  Number of destructive impurities detected (HPLC): 7
[2]; Homo sapiens, SNU-16, 72 h
  IC50: 11 nM

## C=CC(=O)N1C[C@@H](Nc2ncc3cc(-c4c(Cl)c(OC)cc(OC)c4Cl)ccc3n2)C[C@H]1CO [Crystal form I, 1-((2S,4S)-4-((6-(2,6-dichloro-3,5-dimethoxyphenyl)quinazolin-2-yl)amino)-2-(hydroxymethyl)pyrrolidin-1-yl)prop-2-en-1-one]
[3]; 60° C., Day 4, open bottle
  Appearance: Off-white powder
  Purity %: 99.6%
[3]; 60° C., Day 10, open bottle
  Appearance: Off-white powder
  Purity %: 99.6%
[3]; 75% RH, Day 4, open bottle
  Appearance: Off-white powder
  Purity %: 99.6%
[3]; 75% RH, Day 10, open bottle
  Appearance: Off-white powder
  Purity %: 99.6%
[3]; 92.5% RH, Day 4, open bottle
  Appearance: Off-white powder
  Purity %: 99.6%
[3]; 92.5% RH, Day 10, open bottle
  Appearance: Off-white powder
  Purity %: 99.6%
[3]; Day 0
  Appearance: Off-white powder
  Purity %: 99.6%
[3]; [5]
  Appearance: Off-white powder
  Purity %: 99.6%
[3]; [6]
  Appearance: Pale yellow powder
  Purity %: 99.5%
[3]; after 10 days in various influencing factor conditions
  Change of appearance and purity: did not change significantly
[1]; 60° C., Day 10
  Appearance: Off-white powder
  Form (XRPD): Crystal form I
  Related substances (%): 0.64%
[1]; [4]
  Destructive impurity (%): Undetectable
[1]; 60° C., Day 20
  Appearance: Off-white powder
  Form (XRPD): Crystal form I
  Related substances (%): 0.64%
[1]; 60° C., Day 20, additional HPLC peaks vs day 0
  Destructive impurity (%): Undetectable
[1]; 60° C., Day 30
  Appearance: Off-white powder
  Form (XRPD): Crystal form I
  Related substances (%): 0.68%
[1]; 60° C., Day 30, additional HPLC peaks vs day 0
  Destructive impurity (%): Undetectable
[1]; 105° C., Day 3
  Appearance: Off-white powder
  Form (XRPD): Crystal form I
  Related substances (%): 0.62%
[1]; 105° C., Day 3, additional HPLC peaks vs day 0
  Destructive impurity (%): Undetectable
[1]; 105° C., Day 5
  Appearance: Off-white powder
  Form (XRPD): Crystal form I
  Related substances (%): 0.60%
[1]; 105° C., Day 5, additional HPLC peaks vs day 0
  Destructive impurity (%): Undetectable
[1]; 105° C., Day 10
  Appearance: Off-white powder
  Form (XRPD): Crystal form I
  Related substances (%): 0.63%
[1]; 105° C., Day 10, additional HPLC peaks vs day 0
  Destructive impurity (%): Undetectable
[1]; Day 0
  Appearance: Off-white powder
  Destructive impurity (%): None
  Form (XRPD): Crystal form I
  Related substances (%): 0.64%
[1]; after storage at 105° C. for 10 days and at 60° C. for 30 days
  Change of appearance, related substances and form: did not change significantly
[2]; SNU-16 cells with FGFR abnormalities
  Inhibitory activity on SNU-16 cells (in words): good inhibitory activity
[2]
  IC50: 9.5 nM
